# Test system: RSV Long strain
# Assay: Viral cytopathic effect (CPE) assay, anti-RSV activity
# Type: cell-based, Respiratory Syncytial Virus
# Settings: human respiratory syncytial virus, 144 h, RSV Long strain (ATCC); cell viability after 6 days, Cell Counting kit-8
# Procedure, shortened: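 EC50 was derived from CCK-8 viability at 450/630 nm measured 6 days post-infection. Infection used enough RSV Long strain for approximately 80–90% cytopathic effect, in the presence of half-log serially diluted compound. Cells were plated the day before at 6×10^3 per well in DMEM/10% FBS.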
row,SMILES,EC50 [µM]
1,"Cc1ccc2nc(N3CCC(F)(F)c4ccccc4C3)cc(N[C@H]3CC[C@@H](N)CC3)c2c1 [Example 110-9, cis-N-[2-(5,5-Difluoro-1,3,4,5-tetrahydro-2H-2-benzazepin-2-yl)-6-methylquinolin-4-yl]cyclohexane-1,4-diamine]",1.37
2,"Cc1ccc2nc(N3CCS(=O)(=O)c4ccccc4C3)cc(NCC3(N)CCC3)c2c1 [Example 3-54, N-[(1-Aminocyclobutyl)methyl]-2-(1,1-dioxido-2,3-dihydro-1,4-benzothiazepin-4(5H)-yl)-6-methylquinolin-4-amine]",0.114
3,"Cc1ccc2nc(N3CCS(=O)(=O)c4ccccc4C3)nc(NCC3(N)CC3)c2c1 [Example 135-1, N-[(1-Aminocyclopropyl)methyl]-2-(1,1-dioxido-2,3-dihydro-1,4-benzothiazepin-4(5H)-yl)-6-methylquinazolin-4-amine]",0.006
4,"COCCNc1cc(N2CCS(=O)(=O)c3ccccc3C2)nc2ccc(C)cc12 [Example 9-26, 2-(1,1-Dioxido-2,3-dihydro-1,4-benzothiazepin-4(5H)-yl)-N-(2-methoxyethyl)-6-methylquinolin-4-amine]",7.2
5,"Cc1ccc2nc(N3Cc4ccccc4S(=O)(=O)C(C)C3)cc(NCC3(N)COC3)c2c1 (centres unmarked) [Example 69-2, N-[(3-Aminooxetan-3-yl)methyl]-6-methyl-2-(2-methyl-1,1-dioxido-2,3-dihydro-1,4-benzothiazepin-4(5H)-yl)quinolin-4-amine]",0.007
6,"NCCCNc1cc(N2CCS(=O)(=O)c3ccccc3C2)nc2ccc(OC(F)F)cc12 [Example 17-3, N-[6-(Difluoromethoxy)-2-(1,1-dioxido-2,3-dihydro-1,4-benzothiazepin-4(5H)-yl)quinolin-4-yl]propane-1,3-diamine]",2.17
7,"C=Cc1ccc2nc(N3CCS(=O)(=O)c4ccccc4C3)cc(NCCCN)c2c1 [Example 53, N-[2-(1,1-Dioxido-2,3-dihydro-1,4-benzothiazepin-4(5 H)-yl)-6-ethenylquinolin-4-yl]propane-1,3-diamine]",0.094
8,"NCCNc1cc(N2CCCc3ccc(O)cc3C2)nc2ccccc12 [Example 118-2, 2-{4-[(2-Aminoethyl)amino]quinolin-2-yl}-2,3,4,5-tetrahydro-1H-2-benzazepin-8-ol]",0.048
9,"CNCCNc1cc(N2CCCc3ccccc3C2)nc2ccccc12 [Example 118-14, N-Methyl-N′-[2-(1,3,4,5-tetrahydro-2H-2-benzazepin-2-yl)quinolin-4-yl]ethane-1,2-diamine]",0.616
10,"Cc1ccc2nc(N3CCS(=O)(=O)c4ccccc4C3)nc(NCC3(CN)COC3)c2c1 [Example 56-1, N-{[3-(Aminomethyl)oxetan-3-yl]methyl}-2-(1,1-dioxido-2,3-dihydro-1,4-benzothiazepin-4(5H)-yl)-6-methylquinazolin-4-amine]",0.002
11,"CNCCNc1cc(N2CCS(=O)(=O)c3ccccc3C2)nc2ccc(C)cc12 [Example 3-31, N-[2-(1,1-Dioxido-2,3-dihydro-1,4-benzothiazepin-4(5H)-yl)-6-methylquinolin-4-yl]-N′-methylethane-1,2-diamine]",0.014
12,"Cc1ccc2nc(N3CCS(=O)(=O)c4ccccc4C3)cc(NC[C@@H](O)CO)c2c1 [Example 3-11, (2R)-3-{[2-(1,1-Dioxido-2,3-dihydro-1,4-benzothiazepin-4(5H)-yl)-6-methylquinolin-4-yl]amino}propane-1,2-diol]",0.054
13,"COc1ccc2c(c1)CCCN(c1cc(NCCN)c3ccccc3n1)C2 [Example 118-15, N-[2-(7-Methoxy-1,3,4,5-tetrahydro-2H-2-benzazepin-2-yl)quinolin-4-yl]ethane-1,2-diamine]",0.626
14,"Cc1ccc2nc(N3CCS(=O)(=O)c4ccccc4C3)cc(NC(=O)C3CNC(=O)C3)c2c1 (centres unmarked) [Example 47-2, N-[2-(1,1-Dioxido-2,3-dihydro-1,4-benzothiazepin-4(5H)-yl)-6-methylquinolin-4-yl]-5-oxopyrrolidine-3-carboxamide]",5.82
15,"Cc1ccc2nc(N3CCC(F)(F)c4ccccc4C3)nc(NCC3(CN)CSC3)c2c1 [Example 114-2, N-{[3-(Aminomethyl)thietan-3-yl]methyl}-2-(5,5-difluoro-1,3,4,5-tetrahydro-2H-2-benzazepin-2-yl)-6-methylquinazolin-4-amine]",0.975
16,"Cc1ccc2nc(N3CCS(=O)(=O)c4ccccc4C3)cc(Nc3cc[nH]n3)c2c1 [Example 47-3, 2-(1,1-Dioxido-2,3-dihydro-1,4-benzothiazepin-4(5H)-yl)-6-methyl-N-(1H-pyrazol-3-yl)quinolin-4-amine]",5.69
17,"Cc1ccc2nc(N3CCS(=O)(=O)c4ccccc4C3)cc(NCCN)c2c1F [Example 9-21, N-[2-(1,1-Dioxido-2,3-dihydro-1,4-benzothiazepin-4(5H)-yl)-5-fluoro-6-methylquinolin-4-yl]ethane-1,2-diamine]",0.021
18,"COC(=O)c1ccc2nc(N3CCS(=O)(=O)c4ccccc4C3)cc(NCC3(CN)COC3)c2c1 [Example 104, Methyl 4-({[3-(aminomethyl)oxetan-3-yl]methyl}amino)-2-(1,1-dioxido-2,3-dihydro-1,4-benzothiazepin-4(5H)-yl)quinoline-6-carboxylate]",0.89

row,SMILES,EC50 [µM]
1,"NCCNc1cc(N2CCCc3ccccc3C2)nc2ccc(Oc3ccccn3)cc12 [Example 122, N-[6-(Pyridin-2-yloxy)-2-(1,3,4,5-tetrahydro-2H-2-benzazepin-2-yl)quinolin-4-yl]ethane-1,2-diamine]",3.12
2,"Cc1ccc2nc(N3CCC(F)(F)c4ccccc4C3)cc(NCC3(N)COC3)c2c1 [Example 110-1, N-[(3-Aminooxetan-3-yl)methyl]-2-(5,5-difluoro-1,3,4,5-tetrahydro-2H-2-benzazepin-2-yl)-6-methylquinolin-4-amine]",0.017
3,"Cc1ccc2nc(N3CCS(=O)(=O)c4ccccc4C3)nc(N)c2c1 [Example 59, 2-(1,1-Dioxido-2,3-dihydro-1,4-benzothiazepin-4(5H)-yl)-6-methylquinazolin-4-amine]",0.746
4,"Cc1ccc2nc(N3CCC(F)(F)c4ccccc4C3)cc(NCCS(=O)(=O)CCN)c2c1 [Example 113, N-{2-[(2-Aminoethyl)sulfonyl]ethyl}-2-(5,5-difluoro-1,3,4,5-tetrahydro-2H-2-benzazepin-2-yl)-6-methylquinolin-4-amine]",0.733
5,"Cc1ccc2nc(N3CCCc4ccc(F)cc4C3)cc(NCCN)c2c1 [Example 118-4, N-[2-(8-Fluoro-1,3,4,5-tetrahydro-2H-2-benzazepin-2-yl)-6-methylquinolin-4-yl]ethane-1,2-diamine]",0.104
6,"Cc1ccc2nc(N3CCC(F)(F)c4ccccc4C3)cc(NCC(C)N)c2c1 (centres unmarked) [Example 110-8, N^˜1^˜-[2-(5,5-Difluoro-1,3,4,5-tetrahydro-2H-2-benzazepin-2-yl)-6-methylquinolin-4-yl]propane-1,2-diamine]",0.081
7,"Cc1ccc2nc(N3CCS(=O)(=O)c4ccccc4C3)cc(OCCN)c2c1 [Example 97, 2-{[2-(1,1-Dioxido-2,3-dihydro-1,4-benzothiazepin-4(5H)-yl)-6-methylquinolin-4-yl]oxy}ethanamine]",0.177
8,"Cc1ccc2nc(N3CCS(=O)(=O)c4ccccc4C3)cc(N3CC(N)C3)c2c1 [Example 26-2, 1-[2-(1,1-Dioxido-2,3-dihydro-1,4-benzothiazepin-4(5H)-yl)-6-methylquinolin-4-yl]azetidin-3-amine]",0.179
9,"NCCNc1cc(N2CCCc3ccc(F)cc3C2)nc2ccccc12 [Example 118-7, N-[2-(8-Fluoro-1,3,4,5-tetrahydro-2H-2-benzazepin-2-yl)quinolin-4-yl]ethane-1,2-diamine]",0.166
10,"Cc1ccc2nc(N3CCS(=O)(=O)c4ccccc4C3)cc(NC3CCN(C4COC4)C3)c2c1 (centres unmarked) [Example 44-1, 2-(1,1-Dioxido-2,3-dihydro-1,4-benzothiazepin-4(5H)-yl)-6-methyl-N-[1-(oxetan-3-yl)pyrrolidin-3-yl]quinolin-4-amine]",0.084
11,"Cc1ccc2nc(N3CCS(=O)(=O)c4ccccc4C3)cc(N3CC(N)CC3=O)c2c1 (centres unmarked) [Example 73, 4-Amino-1-[2-(1,1-dioxido-2,3-dihydro-1,4-benzothiazepin-4(5H)-yl)-6-methylquinolin-4-yl]pyrrolidin-2-one]",6.98
12,"NC1(CNc2cc(N3CCS(=O)(=O)c4ccccc4C3)nc3ccncc23)COC1 [Example 2-10, N-[(3-Aminooxetan-3-yl)methyl]-2-(1,1-dioxido-2,3-dihydro-1,4-benzothiazepin-4(5H)-yl)-1,6-naphthyridin-4-amine]",0.005
13,"Cc1ccc2nc(N3CCS(=O)(=O)c4ccccc4C3)cc(NC(=O)c3cccnn3)c2c1 [Example 3-58, N-[2-(1,1-Dioxido-2,3-dihydro-1,4-benzothiazepin-4(5H)-yl)-6-methylquinolin-4-yl]pyridazine-3-carboxamide]",0.184
14,"C[S+]([O-])c1ccc2nc(N3CCS(=O)(=O)c4ccccc4C3)cc(NCCCN)c2c1 (centres unmarked) [Example 80, N-[2-(1,1-Dioxido-2,3-dihydro-1,4-benzothiazepin-4(5H)-yl)-6-(methylsulfinyl)quinolin-4-yl]propane-1,3-diamine]",5.48
15,"NCCCNc1cc(N2CCS(=O)(=O)c3ccccc3C2)nc2ccc(OC(F)(F)F)cc12 [Example 17-1, N-[2-(1,1-Dioxido-2,3-dihydro-1,4-benzothiazepin-4(5H)-yl)-6-(trifluoromethoxy)quinolin-4-yl]propane-1,3-diamine]",5.54
16,Cc1ccc2c(c1)S(=O)(=O)CCN(c1cc(NCC3(CN)COC3)c3ccccc3n1)C2 [Example 3-7],0.009
17,"Cc1ccc2nc(N3CCC(F)(F)c4ccccc4C3)cc(NCCN)c2c1 [Example 111-6, N-[2-(5,5-Difluoro-1,3,4,5-tetrahydro-2H-2-benzazepin-2-yl)-6-methylquinolin-4-yl]ethane-1,2-diamine]",0.062

# Reference: patent US8871756B2 (Hoffmann-La Roche Inc., priority 2011, dated 2014)
